Laboratory results: the supplement of paper PMC12420376

Key:
KURAMOCHI = experiment: drug sensitivity score (DSS2) on cancer cell count; higher = more sensitive; extreme values may be limits of the assay; details: 72 h
In short: (§1)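 Cancer cell counts came from 10× images (4 fields) of fixed cells immunostained for CK8/18 with Hoechst. The ovarian cancer cells had been grown alone or in 1:1 direct co-culture with lung or skin fibroblasts on 384-well plates pre-spotted acoustically with 528 approved and investigational compounds at 5 concentrations, then treated for 72 h. Breeze was used to derive a drug sensitivity score from logistic fits of the data.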

OVCAR8 = experiment: as above; details: 72 h
In short: as §1

[1] = co-cultured fibroblast: BJHTERT
[2] = co-cultured fibroblast: none (monoculture)

SMILES	drug sensitivity score (KURAMOCHI; [1])	drug sensitivity score (KURAMOCHI; co-cultured fibroblast: WI38)	drug sensitivity score (KURAMOCHI; [2])	drug sensitivity score (OVCAR8; [1])	drug sensitivity score (OVCAR8; co-cultured fibroblast: WI38)	drug sensitivity score (OVCAR8; [2])
CNc1ncc2cc(-c3cc(NC(=O)NCCC(C)(C)C)c(F)cc3C)c(C)nc2n1	12.7 DSS	10.2 DSS	9.9 DSS	13.1 DSS	15.7 DSS	14.7 DSS
CC(C)[C@H](C(=O)Nc1ccc(C(=O)NO)cc1)c1ccccc1 [AR-42]	14 DSS	15.8 DSS	12.3 DSS	17.8 DSS	15.3 DSS	18.8 DSS
Nc1ncn([C@@H]2O[C@H](CO)[C@@H](O)[C@H]2O)c(=O)n1 [Azacitidine]	2.8 DSS	2.6 DSS	9.3 DSS	3.9 DSS	1.5 DSS	8.9 DSS
Cc1ccc(C(=O)Nc2ccc(CN3CCN(C)CC3)c(C(F)(F)F)c2)cc1C#Cc1cnc2cccnn12 [Ponatinib]	8.3 DSS	6.3 DSS	21.9 DSS	3.5 DSS	6.5 DSS	3.1 DSS
COc1cc2c(Oc3ccc(NC(=O)C4(C(=O)Nc5ccc(F)cc5)CC4)cc3F)ccnc2cc1OCCCN1CCOCC1 [Foretinib]	2.7 DSS	4.3 DSS	1.7 DSS	5.7 DSS	5.6 DSS	6.1 DSS
C=C1C[C@@H]2[C@H](CC[C@]3(C)C(=O)CC[C@@H]23)[C@@]2(C)C=CC(=O)C=C12 [Exemestane]	0 DSS	0 DSS	0 DSS	1.3 DSS	0 DSS	0 DSS
CN(C)C(=O)c1cc2cnc(Nc3ccc(N4CCNCC4)cn3)nc2n1C1CCCC1 [Ribociclib]	0 DSS	3.9 DSS	5.2 DSS	3.9 DSS	0 DSS	0 DSS
C=CC(=O)Nc1cccc(Nc2nc(Nc3ccc(N4CCN(C(C)=O)CC4)cc3OC)ncc2C(F)(F)F)c1 [Rociletinib]	5.8 DSS	4.6 DSS	3.7 DSS	6.7 DSS	4.1 DSS	8.1 DSS
CC(C)Oc1ccc(C(=O)N[C@H](CNC(=O)CN(C)C)Cc2ccc(-c3cn4cccc([C@H](C)O)c4n3)cc2)cc1Cl	18.1 DSS	22.6 DSS	22.8 DSS	18.3 DSS	14.2 DSS	16.6 DSS
NC[C@@](O)(c1ccc(Cl)cc1)c1ccc(-c2cn[nH]c2)cc1	0 DSS	4.2 DSS	3 DSS	3.3 DSS	10.7 DSS	5.1 DSS
CCCCc1nc2cc(/C=C/C(=O)NO)ccc2n1CCN(CC)CC [Pracinostat]	15.7 DSS	20.4 DSS	19.8 DSS	23.1 DSS	20.4 DSS	25.5 DSS
CCN(c1cc(-c2ccc(CN3CCOCC3)cc2)cc(C(=O)NCc2c(C)cc(C)[nH]c2=O)c1C)C1CCOCC1 [Tazemetostat]	0 DSS	0 DSS	0 DSS	0 DSS	0 DSS	0 DSS
CCNc1nc(Nc2cc(F)c(C(=O)N3CCOCC3)cc2OC)ncc1C(F)(F)F [GNE-7915]	0 DSS	0 DSS	0 DSS	0 DSS	0 DSS	0 DSS
COC(=O)N[C@@H](C)CNc1nccc(-c2cn(C(C)C)nc2-c2cc(Cl)cc(NS(C)(=O)=O)c2F)n1 [Encorafenib]	0 DSS	0 DSS	0 DSS	0 DSS	0 DSS	0.1 DSS
CCN(CC)CCNC(=O)c1c(C)[nH]c(/C=C2\C(=O)Nc3ccc(-c4csc(-c5ccccc5)n4)cc32)c1C [Amcasertib]	8.1 DSS	3.9 DSS	6.7 DSS	3.3 DSS	3.1 DSS	0 DSS
CC(C)N(CCCNC(=O)Nc1ccc(C(C)(C)C)cc1)C[C@H]1O[C@@H](n2cc(Br)c3c(N)ncnc32)[C@H](O)[C@@H]1O [SGC0946]	0.1 DSS	3.3 DSS	0 DSS	0 DSS	0 DSS	0 DSS
CN1CC[C@H](c2c(O)cc(O)c3c(=O)cc(-c4ccccc4Cl)oc23)[C@H](O)C1 [Alvocidib]	19.3 DSS	20.2 DSS	20.9 DSS	20.8 DSS	21.6 DSS	21 DSS
CCN(CC)CCN(Cc1ccc(-c2ccc(C(F)(F)F)cc2)cc1)C(=O)Cn1c(SCc2ccc(F)cc2)nc(=O)c2c1CCC2 [Darapladib]	0 DSS	0 DSS	0 DSS	0 DSS	8.3 DSS	0.4 DSS
CC(=O)Nc1ccc(C(=O)Nc2ccccc2N)cc1 [Tacedinaline]	0 DSS	2.6 DSS	3.7 DSS	0 DSS	0 DSS	1.8 DSS
CCOC(=O)CCNc1cc(N2CCc3ccccc3CC2)nc(-c2ccccn2)n1 [GSK-J4]	3.1 DSS	2.7 DSS	10.5 DSS	1.6 DSS	0.3 DSS	4.2 DSS
COC(=O)c1ccc2c(c1)NC(=O)/C2=C(\Nc1ccc(N(C)C(=O)CN2CCN(C)CC2)cc1)c1ccccc1 [Nintedanib]	8.2 DSS	2.7 DSS	4.6 DSS	9.8 DSS	4.6 DSS	7.9 DSS
CO[C@@H](C(=O)N1Cc2[nH]nc(NC(=O)c3ccc(N4CCN(C)CC4)cc3)c2C1)c1ccccc1 [Danusertib]	22.9 DSS	20.9 DSS	28.6 DSS	15 DSS	19.2 DSS	21 DSS
Nc1ncn([C@H]2C[C@H](O)[C@@H](CO)O2)c(=O)n1 [Decitabine]	0 DSS	1.7 DSS	0.3 DSS	6.9 DSS	11.4 DSS	4.8 DSS
CN[C@@H]1C[C@H]2O[C@@](C)([C@@H]1OC)n1c3ccccc3c3c4c(c5c6ccccc6n2c5c31)C(=O)N[C@H]4O [UCN-01]	17 DSS	17.3 DSS	22.7 DSS	19.6 DSS	14.3 DSS	17.7 DSS
CN(C)C[C@@H]1CCn2cc(c3ccccc32)C2=C(C(=O)NC2=O)c2cn(c3ccccc23)CCO1 [Ruboxistaurin]	8.7 DSS	6.5 DSS	14.9 DSS	5.5 DSS	3.8 DSS	6.9 DSS
N#Cc1ccc(C(c2ccc(C#N)cc2)n2cncn2)cc1 [Letrozole]	0 DSS	0 DSS	0 DSS	0 DSS	0 DSS	0 DSS

SMILES	drug sensitivity score (KURAMOCHI; [1])	drug sensitivity score (KURAMOCHI; co-cultured fibroblast: WI38)	drug sensitivity score (KURAMOCHI; [2])	drug sensitivity score (OVCAR8; [1])	drug sensitivity score (OVCAR8; co-cultured fibroblast: WI38)	drug sensitivity score (OVCAR8; [2])
FC(F)(F)c1ccc(/C=C/c2nc(COc3ccc(CCCCn4ccnn4)cc3)co2)cc1 [Mubritinib]	5.6 DSS	0 DSS	0 DSS	16.9 DSS	0 DSS	5.5 DSS
Cc1noc2c1-c1ccccc1C(c1ccc(Cl)cc1)=N[C@H]2CC(N)=O [CPI-0610]	0 DSS	8.5 DSS	5.7 DSS	10.9 DSS	6.5 DSS	13.8 DSS
O=C(/C=C/c1cccc(S(=O)(=O)Nc2ccccc2)c1)NO [Belinostat]	15.1 DSS	18.6 DSS	27.5 DSS	17.7 DSS	18.2 DSS	22.5 DSS
O=C1c2c(O)ccc(O)c2C(=O)c2c(NCCNCCO)ccc(NCCNCCO)c21 [Mitoxantrone]	17.1 DSS	13.3 DSS	23.6 DSS	20.4 DSS	17 DSS	18.1 DSS
CCNC(=O)C[C@@H]1N=C(c2ccc(Cl)cc2)c2cc(OC)ccc2-n2c(C)nnc21 [Molibresib]	6.5 DSS	9.9 DSS	6.7 DSS	12.2 DSS	5.8 DSS	13.6 DSS
O=C1CCc2c(Oc3ccc4c(c3)[C@@H]3[C@H](O4)[C@H]3c3nc4cc(C(F)(F)F)ccc4[nH]3)ccnc2N1 [BGB-283]	6.9 DSS	5.3 DSS	4.7 DSS	3.7 DSS	13.4 DSS	5.2 DSS
CC(=O)Nc1cccc(-n2c(=O)n(C3CC3)c(=O)c3c(Nc4ccc(I)cc4F)n(C)c(=O)c(C)c32)c1 [Trametinib]	9 DSS	7.4 DSS	7.6 DSS	10.7 DSS	3.9 DSS	13.5 DSS
O=C(Nc1cccc(Nc2ncc(Br)c(NCCc3cnc[nH]3)n2)c1)N1CCCC1 [BX-912]	10.4 DSS	9.6 DSS	8.7 DSS	9.1 DSS	7.8 DSS	7.3 DSS
CC(C)c1cc(-c2n[nH]c(=O)n2-c2ccc3c(ccn3C)c2)c(O)cc1O [Ganetespib]	14.8 DSS	17.1 DSS	21 DSS	22.3 DSS	22.9 DSS	27.1 DSS
CC(C)(C#N)c1cc(Cn2cncn2)cc(C(C)(C)C#N)c1 [Anastrozole]	0 DSS	0 DSS	0 DSS	0 DSS	0 DSS	0 DSS
CC/C(=C(\c1ccc(O)cc1)c1ccc(OCCN(C)C)cc1)c1ccccc1 [4-hydroxytamoxifen]	4.8 DSS	1.8 DSS	2.2 DSS	0.2 DSS	0 DSS	4.9 DSS
N#Cc1ccnc(N2C(=O)CC[C@H]2C(=O)N(c2cncc(F)c2)[C@H](C(=O)NC2CC(F)(F)C2)c2ccccc2Cl)c1 [Ivosidenib]	0 DSS	0 DSS	0 DSS	2.1 DSS	0.3 DSS	0.2 DSS
O=C(c1cccc(Cl)c1F)N1CCN(Cc2cccc(Nc3nccs3)n2)CC1 [MK-8745]	11.8 DSS	14.3 DSS	13.4 DSS	12.5 DSS	14.3 DSS	13.9 DSS
Cc1ccc(NC(=O)c2ccc(CN3CC[C@H](N(C)C)C3)c(C(F)(F)F)c2)cc1Nc1nccc(-c2cncnc2)n1 [Bafetinib]	0.1 DSS	0 DSS	0 DSS	0 DSS	0 DSS	0 DSS
Cn1nnc2c(C(N)=O)ncn2c1=O [Temozolomide]	0 DSS	2.2 DSS	9.1 DSS	0 DSS	0 DSS	9.8 DSS
O=C1CCC(N2C(=O)c3ccccc3C2=O)C(=O)N1 (configuration not stated) [Thalidomide]	0 DSS	0 DSS	0 DSS	0 DSS	0 DSS	0 DSS
CC(=O)O[C@]1(C(C)=O)CC[C@H]2[C@@H]3C=C(C)C4=CC(=O)CC[C@]4(C)[C@H]3CC[C@@]21C [Megestrol acetate]	0 DSS	6 DSS	0 DSS	0 DSS	0 DSS	0 DSS
COCCNCc1ccc(-c2cc3nccc(Oc4ccc(NC(=S)NC(=O)Cc5ccc(F)cc5)cc4F)c3s2)nc1 [Glesatinib]	2.7 DSS	1.6 DSS	2.3 DSS	0 DSS	3.5 DSS	0 DSS
COc1cc2c(cc1-c1c(C)noc1C)ncc1[nH]c(=O)n([C@H](C)c3ccccn3)c12 [I-BET151]	9.5 DSS	9.4 DSS	6.3 DSS	14.1 DSS	4 DSS	15.9 DSS
C=C1C[C@@H]2CC[C@@]34C[C@H]5O[C@H]6[C@@H](O3)[C@H]3O[C@H](CC[C@@H]3O[C@H]6[C@H]5O4)CC(=O)C[C@@H]3[C@@H](OC)[C@@H](C[C@H](O)CN)O[C@H]3C[C@H]3O[C@@H](CC[C@@H]1O2)C[C@@H](C)C3=C [Eribulin]	28.8 DSS	26.9 DSS	27.5 DSS	27.5 DSS	29.9 DSS	26.6 DSS
FC(F)c1nc2ccccc2n1-c1nc(N2CCOCC2)nc(N2CCOCC2)n1 [ZSTK474]	15 DSS	12.7 DSS	10.9 DSS	5.3 DSS	0 DSS	9.8 DSS
CN1CCN(c2ccc(C(=O)Nc3n[nH]c4ccc(Cc5cc(F)cc(F)c5)cc34)c(NC3CCOCC3)c2)CC1 [Entrectinib]	2.1 DSS	0.3 DSS	1.4 DSS	0 DSS	4 DSS	0 DSS
O=C(CCCCCCC(=O)Nc1ccc([C@H]2O[C@@H](CSc3nc(-c4ccccc4)c(-c4ccccc4)o3)C[C@@H](c3ccc(CO)cc3)O2)cc1)NO [Tubacin]	1.1 DSS	6.7 DSS	7 DSS	5 DSS	1.5 DSS	6.2 DSS
O=C(O)C1(C(=O)O)CCC1.[NH2-].[NH2-].[Pt+2] [Carboplatin]	13.3 DSS	18.1 DSS	22.9 DSS	9.4 DSS	8.6 DSS	12.3 DSS
COCC1(CO)C(=O)C2CCN1CC2 (configuration not stated) [APR-246]	0 DSS	0 DSS	0 DSS	0 DSS	0 DSS	0 DSS
C=CC(=O)Nc1cccc(Nc2nc(Nc3ccc(OCCOC)cc3)ncc2F)c1 [Spebrutinib]	0 DSS	0 DSS	0 DSS	0 DSS	0 DSS	0 DSS
